These results are taken from PubChem BioAssay (NCI).

Some test systems named below: A498 renal; A549 NSCLC; ACHN renal; DU-145 prostate; MCF7 breast; OVCAR-5 ovarian; SK-MEL-2 melanoma; SK-OV-3 ovarian.
What all share (assay): inhibition of tumour cell growth, NCI panel, 48 h

“And” between values parts separate entries of the source, which are not always exact repeats. Equal entries are not always repeated.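 Results reflect a 48-hour exposure of cells in 96-well plates to compound at five concentrations. At the GI50, growth is halved. TGI: total growth inhibition.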

Regarding `CC(C)c1c(-c2ccccc2)nc2c(C#N)c[nH]n2c1=O`, the GI50 was 13 µM with A498 renal; 33.4 µM in the test on A549 NSCLC; 30.6 µM in the test with ACHN renal; 37.1 µM with DU-145 prostate; 26.2 µM in the test with MCF7 breast; 38.8 µM with OVCAR-5 ovarian. Besides, the GI50 was 27.7 µM with SK-MEL-2 melanoma and 27.2 µM in the test with SK-OV-3 ovarian. In addition, the TGI is 51.1 µM in the test with A498 renal; over 100 µM in the test with A549 NSCLC; over 90.9 µM in the test on ACHN renal; over 100 µM in the test with DU-145 prostate; over 91.5 µM with MCF7 breast; over 100 µM in the test with OVCAR-5 ovarian. Also, the TGI was 78.8 µM with SK-MEL-2 melanoma and over 88.6 µM in the test with SK-OV-3 ovarian.
As for `CC1CCC2(NC1)OC1CC3C4CC=C5CC(O)CCC5(C)C4CCC3(C)C1C2C` (stereo not given), the GI50 was 18.7 µM and 5.56 µM in the test with A498 renal; 42.4 µM and 20.3 µM in the test on A549 NSCLC; 29.8 µM and 11.1 µM in the test with ACHN renal; 94.2 µM and 35.3 µM in the test with DU-145 prostate. Besides, the TGI in the test with A498 renal is 38.5 µM and 14.5 µM; with A549 NSCLC it was over 100 µM; with ACHN renal, 91.7 µM and 30 µM; with DU-145 prostate it was over 100 µM; with MCF7 breast, over 100 µM; in the test on OVCAR-5 ovarian, over 100 µM. The TGI was > 100 µM and 45.4 µM in the test with SK-MEL-2 melanoma; 69.2 µM and 38.6 µM in the test on SK-OV-3 ovarian.
Turning to `O=C(O)c1ccc(CI)cc1`, the TGI with A498 renal stood at 35.3 µM; with A549 NSCLC it was 33.8 µM; in the test with ACHN renal, 30.1 µM; with DU-145 prostate it was 35.9 µM; in the test with MCF7 breast, 31.1 µM; with OVCAR-5 ovarian it was 34.5 µM. The TGI is 48.7 µM with SK-MEL-2 melanoma and 55 µM in the test on SK-OV-3 ovarian.
With `COc1ccc(-c2ccncc2)cc1C(N)=O`, the GI50 was over 22.8 µM with A498 renal; over 25 µM with A549 NSCLC; over 25 µM with ACHN renal; over 25 µM in the test on DU-145 prostate; over 25 µM in the test with MCF7 breast; over 25 µM with OVCAR-5 ovarian. In addition, the GI50 in the test on SK-MEL-2 melanoma and in the test on SK-OV-3 ovarian was over 25 µM each time. Moreover, the TGI with A498 renal, in the test with A549 NSCLC, in the test on ACHN renal, in the test with DU-145 prostate, in the test with MCF7 breast and in the test with OVCAR-5 ovarian was over 25 µM in each case. The TGI with SK-MEL-2 melanoma and with SK-OV-3 ovarian was over 25 µM each time.
As to `O=[N+]([O-])c1cc(Cl)c2[nH]c3c(Cl)cc([N+](=O)[O-])cc3c2c1`, the GI50 was 0.15 µM in the test on A498 renal; 0.302 µM with A549 NSCLC; 0.362 µM with ACHN renal; 0.508 µM in the test with DU-145 prostate; 0.284 µM in the test on MCF7 breast; 1.33 µM in the test on OVCAR-5 ovarian. In addition, the GI50 was 0.347 µM in the test with SK-MEL-2 melanoma and 0.468 µM in the test with SK-OV-3 ovarian. For the same compound, the TGI in the test on A498 renal is 1.36 µM; in the test on A549 NSCLC, 2.9 µM; in the test with DU-145 prostate, over 100 µM; in the test with MCF7 breast, over 100 µM; in the test with OVCAR-5 ovarian it was over 29.5 µM; in the test with SK-MEL-2 melanoma, 2.19 µM. The compound also registered a TGI in the test on SK-OV-3 ovarian of 5.8 µM.
As for `CC[n+]1oc(C(=O)c2ccc(Cl)cc2)c(-c2ccccc2)c1-c1ccccc1.[Cl][Fe]([Cl])([Cl])[Cl]`, the GI50 was 22.2 µM in the test with A498 renal; 22.1 µM with A549 NSCLC; 33.5 µM in the test on ACHN renal; 18.9 µM with DU-145 prostate; 17.4 µM in the test with MCF7 breast; 82.4 µM with OVCAR-5 ovarian. Moreover, the GI50 in the test on SK-MEL-2 melanoma is 30.8 µM; with SK-OV-3 ovarian, 46.7 µM. Besides, the TGI in the test with A498 renal is 75.1 µM; in the test with A549 NSCLC, 68 µM; with ACHN renal, 99.3 µM; in the test on DU-145 prostate, 75 µM; with MCF7 breast, 65.5 µM; with OVCAR-5 ovarian, over 100 µM. Moreover, the values for the TGI in the test with SK-MEL-2 melanoma and in the test with SK-OV-3 ovarian were 85.9 µM and over 100 µM, respectively.
As for `COc1cc2ncn(-c3cc(OCc4ccccc4C(F)(F)F)c(C(=O)N(C)C)s3)c2cc1OC`, the GI50 with A498 renal is 4.58 µM; with A549 NSCLC, 24.9 µM; with ACHN renal, over 25 µM; in the test on DU-145 prostate, over 25 µM; in the test on MCF7 breast it was over 25 µM; in the test on OVCAR-5 ovarian, over 25 µM. For the same compound, the GI50 with SK-MEL-2 melanoma is over 20.2 µM; in the test on SK-OV-3 ovarian it was over 16 µM. Besides, the TGI is over 23.5 µM in the test with A498 renal; over 25 µM in the test on A549 NSCLC; over 25 µM with ACHN renal; over 25 µM in the test with DU-145 prostate; over 25 µM with MCF7 breast; over 25 µM with OVCAR-5 ovarian. The TGI in the test with SK-MEL-2 melanoma and in the test on SK-OV-3 ovarian was over 25 µM throughout.
As for `CS(=O)(=O)CCNCc1cc(-c2cc3c(Nc4ccc(OCc5cccc(F)c5)c(Cl)c4)ncnc3s2)cs1`, the GI50 in the test on A498 renal is 2.27 µM; with A549 NSCLC, 10.8 µM; in the test on ACHN renal, 7.35 µM; with DU-145 prostate it was 13.3 µM; with MCF7 breast, 10.8 µM; in the test on OVCAR-5 ovarian, 13.5 µM. Moreover, the GI50 in the test with SK-MEL-2 melanoma was 12.8 µM; in the test on SK-OV-3 ovarian, 1.04 µM. Also, the TGI in the test on A498 renal, with A549 NSCLC, with ACHN renal, in the test with DU-145 prostate, in the test with MCF7 breast and in the test on OVCAR-5 ovarian was over 25 µM throughout. Besides, the TGI in the test on SK-MEL-2 melanoma is over 25 µM; in the test with SK-OV-3 ovarian it was over 19.6 µM.
As for `COc1ccc2c(=O)cc(-c3ccccc3)[nH]c2c1`, the GI50 in the test with A498 renal is 0.263 µM; in the test on A549 NSCLC, 0.67 µM; in the test with ACHN renal, 4.22 µM; in the test on DU-145 prostate, 1.24 µM; with MCF7 breast, 0.387 µM; in the test with OVCAR-5 ovarian, 22.2 µM. In addition, the GI50 in the test with SK-OV-3 ovarian was 1.17 µM. For the same compound, the TGI with A498 renal is 5.32 µM; in the test on ACHN renal it was over 100 µM; in the test on DU-145 prostate it was over 53.1 µM; in the test with MCF7 breast, over 100 µM; with OVCAR-5 ovarian, over 100 µM; in the test with SK-MEL-2 melanoma, over 100 µM. For the same compound, the TGI with SK-OV-3 ovarian was over 30.8 µM.
`O=C(/C=C/C12c3ccccc3C(c3ccccc31)C1C(=O)NC(=O)C12)c1ccc(Cl)cc1Cl` (stereo not given): the GI50 in the test with A498 renal was 1.82 µM; in the test with A549 NSCLC, 2.23 µM; in the test on ACHN renal, 1.76 µM; in the test with DU-145 prostate it was 1.83 µM; in the test with MCF7 breast it was 1.72 µM; in the test with OVCAR-5 ovarian, 1.72 µM. Further, the GI50 with SK-MEL-2 melanoma is 1.9 µM; with SK-OV-3 ovarian, 2.4 µM. In addition, the TGI in the test with A498 renal worked out at 3.3 µM; in the test with A549 NSCLC it was 6.03 µM; with ACHN renal, 3.15 µM; with DU-145 prostate, 3.43 µM; in the test on MCF7 breast it was 3.79 µM; in the test on OVCAR-5 ovarian it was 3.3 µM. The TGI in the test with SK-MEL-2 melanoma turned out to be 3.62 µM; in the test on SK-OV-3 ovarian it was 6.71 µM.
